Patent US4016159A, “Acylamino-cephem-carboxylic acids containing an amidino or guanidino group in the molecule” (Hoechst Aktiengesellschaft, priority 1973, dated 1977)
≈ marks a conversion by molar mass, not a printed value.

Key:
Assay type in all cases: cell-based
Streptococcus D = test: Minimum inhibition concentration (MIC), Table 4; conditions: Streptococcus, Germ: Streptococcus D; read-out: Minimum inhibition concentration (MIC)
Source text: (§1) Minimum inhibition concentration (MIC) in γ/ml

[1] = system: Staphylococcus aureus SG 511; test: Minimum inhibition concentration (MIC), Table 5; conditions: for MIC: Staphylococcus aureus, SG511, Germ: Staphylococcus aureus SG 511, read-out: Minimum inhibition concentration (MIC)
Source text: as §1
Germ: Staphylococcus aureus SG 511

Streptococcus pyogenes A = test: Minimum inhibition concentration (MIC), Table 3; conditions: Germ: Streptococcus pyogenes A; read-out: Minimum inhibition concentration MIC
Source text: Minimum inhibition concentration MIC in γ/ml
Germ: Streptococcus pyogenes A

[2] = system: Staphylococcus aureus 285; test: Minimum inhibition concentration (MIC), Table 1; conditions: Staphylococcus aureus, 285, Germ: Staphylococcus aureus 285; read-out: Minimum inhibition concentration (MIC)
Source text: as §1
Germ: Staphylococcus aureus 285

MIC (Streptococcus D) [µg/mL] | MIC [1] [µg/mL] | MIC (Streptococcus pyogenes A) [µg/mL] | MIC [2] [µg/mL] | Minimum inhibition concentration (MIC) ([1]; Germ: Staphylococcus aureus SG 511) [µg/mL] | Structure (SMILES)
10 to 50 (≈ 18.2 to 90.8 µM) | 0.0196 to 0.0391 (≈ 0.0356 to 0.071 µM) | 0.000391 to 0.0078 (≈ 0.00071 to 0.0142 µM) | 0.156 to 0.391 (≈ 0.283 to 0.71 µM) |  | N=C(N)c1ccc(CC(=O)NC2C(=O)N3C(C(=O)O)=C(CSc4nnc(-c5ccccc5)o4)CSC23)cc1 (stereo not drawn) [Example 56, 3-[(5-phenyl-1,3,4-oxadiazole-2-yl)-thiomethyl]-7-(4-amidinophenylacetamido)-Δ 3-cephem-4-carboxylic acid]
10 to 50 (≈ 16.9 to 84.5 µM) | 0.0625 to 0.078 (≈ 0.106 to 0.132 µM) | 0.000391 to 0.0078 (≈ 0.000661 to 0.0132 µM) | 0.5 to 1.25 (≈ 0.845 to 2.11 µM) |  | O=C(Cc1ccc(C2=NCCN2)cc1)NC1C(=O)N2C(C(=O)O)=C(CSc3nc(-c4ccccc4)cs3)CSC12 (stereo not drawn) [Example 117, 3-[(4-phenyl-thiazole-2-yl)-thiomethyl]-7-[4-(imidazoline-2-yl)-phenylacetamido]-Δ3-cephem-4-carboxylic acid]
0.196 to 6.25 (≈ 0.343 to 10.9 µM) | 0.0625 to 0.078 (≈ 0.109 to 0.136 µM) | 0.000391 to 0.0078 (≈ 0.000684 to 0.0136 µM) | 0.156 to 0.391 (≈ 0.273 to 0.684 µM) |  | CC(C)(C)c1csc(SCC2=C(C(=O)O)N3C(=O)C(NC(=O)Cc4ccc(C5=NCCN5)cc4)C3SC2)n1 (stereo not drawn) [Example 111, 3-[(4-tert.butyl-thiazole-2-yl)-thiomethyl]-7-[-4-(imidazoline-2-yl)-phenylacetamido]-Δ3-cephem-4-carboxylic acid]
10 to 50 (≈ 18.2 to 91.1 µM) | 0.0625 to 0.078 (≈ 0.114 to 0.142 µM) | 0.008 to 0.0156 (≈ 0.0146 to 0.0284 µM) | 0.5 to 1.25 (≈ 0.911 to 2.28 µM) |  | CCCc1nnc(SCC2=C(C(=O)O)N3C(=O)C(NC(=O)COc4ccc(C(=N)N)cc4)C3SC2)s1 (stereo not drawn) [Example 68, 3-[(5-n-propyl-1,3,4-thiadiazole-2-yl)-thiomethyl]-7-(4-amidinophenoxyacetamido)-Δ 3-cephem-4-carboxylic acid]
0.196 to 6.25 (≈ 0.315 to 10 µM) | 0.0196 to 0.0391 (≈ 0.0315 to 0.0628 µM) | 0.000391 to 0.0078 (≈ 0.000628 to 0.0125 µM) | 0.156 to 0.391 (≈ 0.251 to 0.628 µM) |  | O=C(COc1ccc(C2=NCCCN2)cc1)NC1C(=O)N2C(C(=O)O)=C(CSc3nnc(-c4ccccc4)s3)CSC12 (stereo not drawn) [Example 50]
10 to 50 (≈ 19.8 to 99.1 µM) | 0.0625 to 0.078 (≈ 0.124 to 0.155 µM) |  | 0.5 to 1.25 (≈ 0.991 to 2.48 µM) |  | N=C(N)Nc1ccc(CC(=O)NC2C(=O)N3C(C(=O)O)=C(CSc4nccs4)CSC23)cc1 (stereo not drawn) [Example 8]
10 to 50 (≈ 15.4 to 77.2 µM) | 0.0196 to 0.0391 (≈ 0.0303 to 0.0604 µM) | 0.000391 to 0.0078 (≈ 0.000604 to 0.012 µM) | 0.156 to 0.391 (≈ 0.241 to 0.604 µM) |  | CSc1nc(SCC2=C(C(=O)O)N3C(=O)C(NC(=O)Cc4ccc(C5=NCCCN5)cc4)C3SC2)nc(-c2ccccc2)n1 (stereo not drawn) [Example 69, 3-[(4-methylmercapto-6-phenyl-1,3,5-triazine-2-yl)-thiomethyl]-7-[4-(1,4,5,6-tetrahydropyrimide-2-yl)-phenyl-acetamido]-Δ 3-cephem-4-carboxylicacid]
0.196 to 6.25 (≈ 0.351 to 11.2 µM) | 0.0625 to 0.078 (≈ 0.112 to 0.14 µM) | 0.000391 to 0.0078 (≈ 0.000701 to 0.014 µM) | 0.156 to 0.391 (≈ 0.28 to 0.701 µM) |  | CCCc1csc(SCC2=C(C(=O)O)N3C(=O)C(NC(=O)Cc4ccc(C5=NCCN5)cc4)C3SC2)n1 (stereo not drawn) [Example 114, 3-[(4-n-propyl-thiazole-2-yl)-thiomethyl]-7-[4-(imidazoline-2-yl)-phenylacetamido]-Δ3-cephem-4-carboxylic acid]
10 to 50 (≈ 16.9 to 84.6 µM) | 0.0625 to 0.078 (≈ 0.106 to 0.132 µM) | 0.000391 to 0.0078 (≈ 0.000662 to 0.0132 µM) | 0.5 to 1.25 (≈ 0.846 to 2.12 µM) |  | O=C(Cc1ccc(C2=NCCCN2)cc1)NC1C(=O)N2C(C(=O)O)=C(CSc3nnnn3-c3ccccc3)CSC12 (stereo not drawn) [Example 71, 3-[(1-phenyl-1-H-tetrazole-5-yl)-thiomethyl]-7-[4-(1,4,5,6-tetrahydropyrimide-2-yl)-phenyl-acetamido]-Δ 3-cephem-4-carboxylic acid]
 |  |  | 0.5 to 1.25 (≈ 0.96 to 2.4 µM) | 0.0196 to 0.0391 | Cc1nnc(SCC2=C(C(=O)O)N3C(=O)C(NC(=O)COc4ccc(C(=N)N)cc4)C3SC2)s1 (stereo not drawn) [Example 46, 3-[(5-methyl-1,3,4-thiadiazole-2-yl)-thiomethyl]-7-[4-amidinophenoxyacetamido]-Δ 3-cephem-4-carboxylic acid]
10 to 50 (≈ 19.8 to 99.1 µM) | 0.0625 to 0.078 (≈ 0.124 to 0.155 µM) |  |  |  | Cc1nnc(SCC2=C(C(=O)O)N3C(=O)C(NC(=O)Cc4ccc(C(=N)N)cc4)C3SC2)s1 (stereo not drawn) [Example 26, 3-[(5-methyl-1,3,4-thiadiazole-2-yl)-thiomethyl]-7-(4-amidinophenylacetamido)-Δ 3-cephem-4-carboxylic acid]
 | 0.0625 to 0.078 (≈ 0.116 to 0.145 µM) | 0.000391 to 0.0078 (≈ 0.000729 to 0.0145 µM) | 0.156 to 0.391 (≈ 0.291 to 0.729 µM) |  | COc1cc(C(=N)N)ccc1OCC(=O)NC1C(=O)N2C(C(=O)O)=C(CSc3nncs3)CSC12 (stereo not drawn) [Example 127]
10 to 50 (≈ 17.5 to 87.6 µM) |  | 0.008 to 0.0156 (≈ 0.014 to 0.0273 µM) | 1.6 to 2.5 (≈ 2.8 to 4.38 µM) |  | CCCCc1nnc(SCC2=C(C(=O)O)N3C(=O)C(NC(=O)Cc4ccc(C5=NCCCN5)cc4)C3SC2)o1 (stereo not drawn) [Example 81, 3-[(5-n-butyl-1,3,4-oxadiazole-2-yl)-thiomethyl]-7-[4-(1,4,5,6-tetrahydropyrimide-2-yl)-phenyl-acetamido]-Δ 3-cephem-4-carboxylic acid]
